Test results published in publication PMC11471619, “A palmitoyl transferase chemical–genetic system to map ZDHHC-specific S-acylation” (Nature Biotechnology, 2024).
Values belong to the compound of their own block, whether it stands above or below them.

Tests used:
Test in all cases: probe loading in HEK293T, FLAG IP, TAMRA click, in-gel fluorescence
Format in all cases: cell-based
Settings in all cases: 15 µM, fed as free acid and activated to the CoA ester in cells; covalent thioester
ZDHHC11 = molecular target: T1, ZDHHC11 (Homo sapiens, UniProt Q9H8X9, M181A)
T1 construct: N-terminal 3xFLAG tag; expressed in HEK293T, anti-FLAG immunoprecipitated
T1 sequence (Q9H8X9 1-412 M181A): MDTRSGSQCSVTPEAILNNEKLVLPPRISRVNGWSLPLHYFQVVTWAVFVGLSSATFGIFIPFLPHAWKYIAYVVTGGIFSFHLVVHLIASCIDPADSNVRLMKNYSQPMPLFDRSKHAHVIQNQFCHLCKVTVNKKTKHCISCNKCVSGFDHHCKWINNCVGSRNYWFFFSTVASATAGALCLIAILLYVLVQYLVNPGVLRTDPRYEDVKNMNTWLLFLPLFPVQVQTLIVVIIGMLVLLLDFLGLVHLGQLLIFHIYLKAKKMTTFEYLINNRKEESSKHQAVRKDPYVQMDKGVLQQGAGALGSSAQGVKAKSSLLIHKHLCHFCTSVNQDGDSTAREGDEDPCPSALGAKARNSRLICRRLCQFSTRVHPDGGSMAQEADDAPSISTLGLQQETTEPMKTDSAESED
Source text: probe loading in HEK293T, FLAG IP, TAMRA click, in-gel fluorescence on ZDHHC11 | ZDHHC11(M181A)/16-cPr

ZDHHC15 = molecular target: T2, ZDHHC15 (Homo sapiens, UniProt Q96MV8, Y184G)
T2 construct: N-terminal 3xFLAG tag; expressed in HEK293T, anti-FLAG immunoprecipitated
T2 sequence (Q96MV8 1-337 Y184G): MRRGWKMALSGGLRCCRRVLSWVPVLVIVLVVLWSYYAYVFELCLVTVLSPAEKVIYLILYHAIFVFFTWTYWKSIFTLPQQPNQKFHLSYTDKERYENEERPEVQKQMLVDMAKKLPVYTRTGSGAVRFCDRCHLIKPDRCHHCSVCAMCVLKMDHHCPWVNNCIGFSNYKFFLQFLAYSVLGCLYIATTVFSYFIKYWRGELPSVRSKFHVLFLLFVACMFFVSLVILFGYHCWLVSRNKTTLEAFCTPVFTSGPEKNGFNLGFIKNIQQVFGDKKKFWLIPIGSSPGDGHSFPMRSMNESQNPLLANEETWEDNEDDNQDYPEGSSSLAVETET
Source text: probe loading in HEK293T, FLAG IP, TAMRA click, in-gel fluorescence on ZDHHC15 | ZDHHC15(Y184G)/20-cPr

ZDHHC3 = molecular target: T3, ZDHHC3 (Homo sapiens, UniProt Q9NYG2, I182G)
T3 construct: N-terminal 3xFLAG tag; expressed in HEK293T, anti-FLAG immunoprecipitated
T3 sequence (Q9NYG2 1-299 I182G): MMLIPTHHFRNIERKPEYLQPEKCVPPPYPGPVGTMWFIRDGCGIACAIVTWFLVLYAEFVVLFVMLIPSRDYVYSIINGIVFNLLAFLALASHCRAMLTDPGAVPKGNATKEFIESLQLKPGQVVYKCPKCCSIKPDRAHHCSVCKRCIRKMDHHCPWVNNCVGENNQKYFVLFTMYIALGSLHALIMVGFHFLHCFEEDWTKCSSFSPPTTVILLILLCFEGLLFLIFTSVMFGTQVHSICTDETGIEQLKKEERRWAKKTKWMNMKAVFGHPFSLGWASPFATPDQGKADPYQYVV

ZDHHC7 = molecular target: T4, ZDHHC7 (Homo sapiens, UniProt Q9NXF8, L57G)
T4 construct: N-terminal 3xFLAG tag; expressed in HEK293T, anti-FLAG immunoprecipitated
T4 sequence (Q9NXF8 1-308 L57G): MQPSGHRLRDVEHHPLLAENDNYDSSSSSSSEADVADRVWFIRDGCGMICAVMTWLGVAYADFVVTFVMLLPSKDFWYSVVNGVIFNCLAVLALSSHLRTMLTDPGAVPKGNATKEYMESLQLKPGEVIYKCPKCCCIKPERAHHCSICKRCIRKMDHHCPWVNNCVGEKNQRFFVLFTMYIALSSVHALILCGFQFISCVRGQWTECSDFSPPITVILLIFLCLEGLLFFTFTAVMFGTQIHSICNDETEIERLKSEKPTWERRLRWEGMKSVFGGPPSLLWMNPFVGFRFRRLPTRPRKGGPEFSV
Source text: probe loading in HEK293T, FLAG IP, TAMRA click, in-gel fluorescence on ZDHHC7 | ZDHHC7(L57G)/20-Bz

probe loading in HEK293T, FLAG IP, TAMRA click, in-gel fluorescence (ZDHHC11): ZDHHC11(M181A)/16-cPr
SMILES: C#CCN(CCCCCCCCCCCC(=O)O)C(=O)C1CC1 [6b, 12-(N-(Prop-2-yn-1-yl)cyclopropanecarboxamido)dodecanoic acid]

probe loading in HEK293T, FLAG IP, TAMRA click, in-gel fluorescence (ZDHHC15): ZDHHC15(Y184G)/20-cPr
SMILES: C#CCN(CCCCCCCCCCCCCCCC(=O)O)C(=O)C1CC1 [6h, 16-(N-(Prop-2-yn-1-yl)cyclopropanecarboxamido)hexadecanoic acid]
probe loading in HEK293T, FLAG IP, TAMRA click, in-gel fluorescence (ZDHHC3): four additional optimized mutant/probe pairs: ZDHHC3(I182G)/20-cPr

probe loading in HEK293T, FLAG IP, TAMRA click, in-gel fluorescence (ZDHHC7): ZDHHC7(L57G)/20-Bz
SMILES: C#CCN(CCCCCCCCCCCCCCCC(=O)O)C(=O)c1ccccc1 [6i, 16-(N-(Prop-2-yn-1-yl)benzamido)hexadecanoic acid]
